Assay results from US20240350589A1, “IL-2/IL-15RBETAGAMMA AGONIST COMBINATION WITH ANTIBODY-DRUG CONJUGATES FOR TREATING CANCER” (Cytune Pharma, priority 2021, published 2024).
“Also recorded” adds a separate entry of the source.

Legend:
AGS tumor cell line [1] = experiment: In vitro killing of AGS tumor cells, AnnexinV/DAPI flow cytometry; type: cell-based, human; conditions: doxorubicin 1.2 μM or cisplatin 100 μM 48 h; Kadcyla 7 μg/ml 72 h
AGS tumor cell line [2] = experiment: Cell surface exposure of ICD markers CRT, HSP70, HSP90 on early apoptotic AGS cells (flow cytometry); type: cell-based, human; conditions: doxorubicin 1.2 μM, cisplatin 100 μM 48 h vs Kadcyla 7 μg/ml 72 h
Procedure: The cells are collected and washed twice with PBS. The cells are then incubated for 30 min with primary antibody diluted in cold blocking buffer (2% fetal bovine serum in PBS), followed by washing and incubation with an […] monoclonal secondary antibody in blocking solution. Each sample was then analyzed using a FACScan Aria (BD Bioscience). Cell surface expression of HSP70, HSP90 and CRT is analyzed on non-permeabilized annexin V-positive/DAPI-negative cells.
The expression of ICD markers Hsp70, Hsp90 and CRT as well as NK cells ligands was measured by flow cytometry on these early apoptotic (AnnexinV^+/DAPI^−) cell populations using anti-calreticulin antibody (Abcam, USA), anti-HSP70 (R&D Systems, USA), anti-HSP90 (Enzo Life Sciences, USA). APC AffiniPure F(ab′)2 Fragment Goat Anti-Mouse (Jackson ImmunoResearch) was used as a secondary antibody.

[3] = tested on: CD3-CD56+ cells (NK cells) of human PBMCs; experiment: In vitro activation of NK cells: RLI-15 treated PBMCs co-incubated with treated AGS tumor cells; type: cell-based
Procedure: As controls non-treated tumor cells were incubated with non-treated PBMC (KadNT in the ADC group) and non-treated tumor cells were incubated with RLI-15 treated PBMC (KadNT in the RLI+ADC group).

huHER2/EMT-6 tumors = experiment: Orthotopic huHER2/EMT-6 breast cancer model in vivo; parameters: species or system Balb/c AnN mice; conditions: RLI-15 1 mg/kg s.c. days 15-18, Kadcyla 15 mg/kg i.v. days 0 and 7
Procedure: The study was initiated when the initial mean tumor volume among individual groups reached 140 mm^3. […] RLI-15 was administered in 4 sequential doses on study days 15-18 to amplify the numbers and activate immune cells. The antitumor efficacy was evaluated on the level of absolute tumor volume change. Safety has been monitored by body weight loss in individual animals. HER2 expression in individual tumors was analyzed using HercepTest™ (Dako) at the endpoint to map for potential heterogeneity of the model (staining was performed according to the instructions given by the manufacturer).

[4] = in vivo; cited from earlier work

For `N.N.[Cl][Pt][Cl]` [cisplatin], the “induction of early apoptosis compared with Kadcyla” value (AGS tumor cell line [1]) was “equally” and the “mean fluorescent intensity (MFI) of ICD markers compared with Kadcyla” value (AGS tumor cell line [2]) was “stronger induction”.

For `COc1cccc2c1C(=O)c1c(O)c3c(c(O)c1C2=O)C[C@@](O)(C(=O)CO)C[C@@H]3O[C@H]1C[C@H](N)[C@H](O)[C@H](C)O1` [doxorubicin], the “induction of early apoptosis compared with Kadcyla” value (AGS tumor cell line [1]) was “even better suitable to induce early apoptosis” and the “mean fluorescent intensity (MFI) of ICD markers compared with Kadcyla” value (AGS tumor cell line [2]) was “about equal”.

In the case of “RLI-15: receptor-linker-interleukin fusion protein of the human IL-15Rα sushi+ fragment with the human IL-15 (SEQ ID NO: 9)”, the “proliferation of CD3-CD56+ NK cells” value ([3]; PBMCs +/- 2.5 ng/ml RLI-15 72 h, AGS cells +/- Kadcyla 72 h, 10:1, 4 h) is reported as “increase of total number of CD3−CD56^+ cells; also recorded: strong proliferation; also recorded: increase of total number of CD3^−CD56^+ cells”, the “% of IFNγ+ NK cells” value ([3]; PBMCs +/- 2.5 ng/ml RLI-15 72 h, AGS cells treated with Kadcyla 5-10 μg/ml 72 h, 10:1, 4 h) is reported as “only moderate” and the “% of CD107a+ cells, KadNT group” value ([3]; RLI-15 treated PBMC with non-treated tumor cells) is reported as less than 40%. The “tumor volume at the end of the study” value (huHER2/EMT-6 tumors) was “intermediate tumor volume increase” and the “complete tumor eradication / complete and durable responses” value (huHER2/EMT-6 tumors; groups of 8 mice) was 2 out of 8.

In the case of Todelvy, the half-life [4] is given as 16 h.
